Measurements from patent US4285953A, “Inhibition of biosynthesis of triglycerides by certain N-β-phenethyl-N-pyridylalkylamines” (Shell Oil Company, priority 1980, dated 1981).

Test system: enzyme prepared from pig adipose tissue (synthesis of triglycerides)
Assay: Inhibition of triglyceride synthesis by enzyme preparation from pig adipose tissue (14C-glycerol-3-phosphate incorporation)
Assay type: biochemical
Conditions: test compound 1000 micrograms per milliliter, 5% DMSO, 8 minutes at 37° C; compared to controls without test compound; average of two animals
Experimental: An enzyme was prepared by homogenizing one gram of slices from pig adipose tissue, each slice being approximately 0.3 mm thick, in onemilliliter portions of a liquid medium (Liquid A). The homogenate then was centrifuged (10.000 g×15 minutes), and the supernatant phase (the enzyme) was poured through cheesecloth to remove fat that had risen to the top of the centrifuge tubes.
Liquid A had the following composition (in water):
0.15 M potassium chloride, 1 mM ethylenediaminetetracetic acid, […] Hepes (N-2-hydroxyethylpiperazine-N'-2-ethanesulfonic acid), 1 mM DTT (dithiothreitol), pH=7.0.
A solution of the test compound (Liquid B) was prepared: 10 milligrams of test compound plus 0.5 milliliter dimethylsulfoxide (DMSO) plus 1.83 milliliters of glass-distilled water.
A premix (Liquid C) was freshly prepared before each test, from the following components: […]
0.25 milliliter of enzyme then was added. […] Ten milliliters of a 2:1 (v/v) mixture of toluene and Triton X-100 containing 0.27% New England Nuclear Omnifluor was added, and the radioactivity was determined in a liquid scintillation counter. […]
The percent inhibition by the test compound compared to the controls (no test compound) was determined.

Compound	Percent Inhibition
Cc1ccc(CC(C)NCCCC(c2ccccc2)c2ccccn2)cc1.O=C(O)/C=C\C(=O)O (centres unmarked) [Compound 1, N-(1-methyl-2-(4-methylphenyl)ethyl)-delta-phenyl-2-pyridinebutanamine, maleic acid salt]	97
CC(C)(Cc1ccc(Cl)cc1)NCCCC(c1ccccc1)c1ccccn1.O=C(O)/C=C\C(=O)O (centres unmarked) [Compound 2, N-(2-(4-chlorophenyl)-1,1-dimethylethyl)-delta-phenyl-2-pyridinebutanamine, maleic acid salt]	93
